PubChem BioAssay (NCI)
Where “and” joins values, the source holds several entries; their conditions need not be identical. Equal values may be shown once.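 Grown in 96-well plates, cells were treated for 48 hours with each compound at five concentrations. Insufficient inhibition: endpoint recorded as highest concentration tested. Abbreviation: GI50, concentration required for 50% inhibition of growth. Definition used: TGI = concentration required for complete inhibition of growth.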

What was measured:
Assay in all cases: growth of human tumour cells (NCI), 48 h
[1] = system: DMS 114 small cell lung
[2] = system: SNB-78 CNS
[3] = system: RXF-631 renal

CCOC(=O)C1=C(C)N(NC(=O)OC)C2(N)N(NC(=O)OC)C(C)=C(C(=O)OCC)C12C#N (centres undefined)
TGI [1]: > 100 µM

Cc1nnc2n1N=C(c1ccc(-c3ccc([N+](=O)[O-])cc3)o1)CS2
TGI [2]: > 100 µM

C/C(CC(=O)Nc1ccccc1)=N\NC(N)=S
TGI [1]: > 100 µM | TGI [2]: > 100 µM

C/C(=C(/C)c1cc[n+](C)cc1)c1cc[n+](C)cc1
TGI [1]: 50.3 µM | TGI [2]: > 75 µM

CCOC(=O)C1=C(c2ccccc2)NC(c2ccccc2)=C(C(=O)OCC)c2c1c(=O)cc[nH]c2=O
TGI [3]: > 100 µM | TGI [2]: > 100 µM

COc1ccc(-c2cc(=O)c3ccc(F)cc3[nH]2)cc1
TGI [1]: > 100 µM | TGI [3]: > 100 µM | TGI [2]: > 100 µM

C=CCN(N=O)C(=O)N(CCCCC(NC(C)=O)C(=O)NCc1ccccc1)Cc1ccccc1 (centres undefined)
TGI [1]: 86.4 µM | TGI [3]: > 100 µM

O=C(Nc1ccccc1[N+](=O)[O-])C(=O)C(C(=O)c1ccccc1-c1ccccc1)C1OC(=O)c2ccccc21 (centres undefined)
TGI [1]: 31.7 µM | TGI [3]: 35.3 µM | TGI [2]: > 100 µM

O=C1COc2cc3c(cc2N1)SCCC(=O)N3
TGI [1]: > 100 µM | TGI [3]: > 100 µM

COc1ccc(/C(=C\c2cc(OC)c(OC)c(OC)c2)C(=O)O)cc1
TGI [1]: 67.2 µM | TGI [2]: > 100 µM

O=[N+]([O-])c1cc(Cl)ccc1S(=O)(=O)c1ccc(Cl)cc1[N+](=O)[O-]
TGI [1]: 23.9 µM | TGI [2]: 34.7 µM

CC(=O)OCC1OC(n2c(=S)n(-c3ccccc3)c(=O)c3cc(Br)ccc32)C(OC(C)=O)C(OC(C)=O)C1OC(C)=O (centres undefined)
TGI [1]: > 100 µM | TGI [3]: > 100 µM | GI50 [2]: 41.5 µM and > 10 µM | TGI [2]: > 100 µM

O=c1[nH]cc(COCC(O)CO)c(=O)[nH]1 (centres undefined)
TGI [1]: > 100 µM | TGI [3]: > 100 µM | TGI [2]: > 100 µM
